Values of other authors in patent US8323685B2, “Methods of processing compositions containing microparticles” (Baxter International Inc., priority 2008, dated 2012).

Tested on: not given
Conditions: ambient temperature such as 20-25° C.

SMILES	Solubility (Sol) of water in the liquid [g/100 g]
CC(C)OC(C)C [diisopropyl ether]	0.2
CCOCC [ether]	7.5

Tested on: rats
Conditions: oral, all at once (acute toxicity), minimal amount reported in the literature

SMILES	LD50 [g/kg body weight]
CC(C)=O [Acetone]	5.8
COCCOC [dimethoxyethane]	10
CCC(C)=O [2-butanone (MEK), 2-butanone]	2.7
CCOCC [ether]	1.2
